{"source": "patent US6358885B1", "about": "“Substituted phenylheterocyclic herbicides” (Mississippi State University, priority 1992, dated 2002)", "key": {"[1]": {"tested_on": "crabgrass", "test": "Test C preemergence/postemergence greenhouse plant response rating 0 to 100", "type": "in vivo, Digitaria sanguinalis", "conditions": "for Plant response rating, Crabgrass: 125 g/ha, 0 to 100 scale", "how_it_was_run": "(§1)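 Compounds in non-phytotoxic solvent went onto sandy loam before emergence (seeded one day earlier) or onto plants at the one-to-four leaf stage. Duck salad was treated via flood water (~2.5 cm, maintained) over silt loam.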"}, "[2]": {"tested_on": "ryegrass", "test": "Test C preemergence/postemergence greenhouse plant response rating 0 to 100", "type": "in vivo, Lolium multiflorum", "conditions": "for Plant response rating Ryegrass: 125 g/ha, 0 to 100 scale", "how_it_was_run": "as §1"}, "[3]": {"tested_on": "corn", "test": "Test C preemergence/postemergence greenhouse plant response rating 0 to 100", "type": "in vivo, Zea mays", "conditions": "for Plant response rating, Corn: 125 g/ha, 0 to 100 scale", "how_it_was_run": "as §1"}, "[4]": {"tested_on": "rice", "test": "Test C flood test plant response rating 0 to 100", "type": "in vivo, Oryza sativa", "how_it_was_run": "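Compounds in non-phytotoxic solvent applied preemergence to sandy loam one day after planting, postemergence at the 1–4 leaf stage, or to ~2.5 cm floodwater over silt loam.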"}, "[5]": {"tested_on": "sorghum", "test": "Test B preemergence/postemergence greenhouse plant response rating 0 to 10", "type": "in vivo, Sorghum bicolor", "conditions": "for Plant response rating, Sorghum: 0 to 10 scale", "how_it_was_run": "(§2)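 Postemergence treatment of plants two to eighteen cm tall ran alongside preemergence treatment of planted seed, each using compound in a non-phytotoxic solvent.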"}, "[6]": {"tested_on": "morningglory", "test": "Test C preemergence/postemergence greenhouse plant response rating 0 to 100", "type": "in vivo, Ipomoea hederacea", "conditions": "for Plant response rating, Morningglory: 125 g/ha, 0 to 100 scale", "how_it_was_run": "as §1"}, "[7]": {"tested_on": "purple nutsedge", "test": "Test B preemergence/postemergence greenhouse plant response rating 0 to 10", "type": "in vivo, Cyperus rotundus", "conditions": "for Plant response rating, Nutsedge: 0 to 10 scale", "how_it_was_run": "as §2"}, "[8]": {"tested_on": "wheat", "test": "Test C preemergence/postemergence greenhouse plant response rating 0 to 100", "type": "in vivo, Triticum aestivum", "conditions": "for Plant response rating, Wheat: 125 g/ha, 0 to 100 scale", "how_it_was_run": "as §1"}}}
{"smiles": "CCOCOc1cc(-c2nn3c(c2Cl)CCCC3)c(F)cc1Cl", "note": "[Compound 59]", "values": [{"measurement": "Plant response rating, Crabgrass", "setting": "[1]; POSTEMERGENCE", "result": 70}, {"measurement": "Plant response rating (0 to 100), Crabgrass", "setting": "[1]; POSTEMERGENCE, Rate 2 g/ha", "result": 10}, {"measurement": "Plant response rating, Crabgrass", "setting": "[1]; PREEMERGENCE", "result": 90}, {"measurement": "Plant response rating (0 to 100), Crabgrass", "setting": "[1]; PREEMERGENCE, Rate 2 g/ha", "result": 0}, {"measurement": "Plant response rating (0 to 100), Crabgrass", "setting": "[1]; Rate 8 g/ha, POSTEMERGENCE", "result": 30}, {"measurement": "Plant response rating (0 to 100), Crabgrass", "setting": "[1]; Rate 8 g/ha, PREEMERGENCE", "result": 0}, {"measurement": "Plant response rating (0 to 100), Crabgrass", "setting": "[1]; Rate 31 g/ha, POSTEMERGENCE", "result": 40}, {"measurement": "Plant response rating (0 to 100), Crabgrass", "setting": "[1]; Rate 31 g/ha, PREEMERGENCE", "result": 30}, {"measurement": "Plant response rating Ryegrass", "setting": "[2]; POSTEMERGENCE", "result": 80}, {"measurement": "Plant response rating (0 to 100), Ryegrass", "setting": "[2]; POSTEMERGENCE, Rate 2 g/ha", "result": 10}, {"measurement": "Plant response rating Ryegrass", "setting": "[2]; PREEMERGENCE", "result": 90}, {"measurement": "Plant response rating (0 to 100), Ryegrass", "setting": "[2]; PREEMERGENCE, Rate 2 g/ha", "result": 0}, {"measurement": "Plant response rating (0 to 100), Ryegrass", "setting": "[2]; Rate 8 g/ha, POSTEMERGENCE", "result": 20}, {"measurement": "Plant response rating (0 to 100), Ryegrass", "setting": "[2]; Rate 8 g/ha, PREEMERGENCE", "result": 20}, {"measurement": "Plant response rating (0 to 100), Ryegrass", "setting": "[2]; Rate 31 g/ha, POSTEMERGENCE", "result": 40}, {"measurement": "Plant response rating (0 to 100), Ryegrass", "setting": "[2]; Rate 31 g/ha, PREEMERGENCE", "result": 50}, {"measurement": "Plant response rating, Corn", "setting": "[3]; POSTEMERGENCE", "result": 65}, {"measurement": "Plant response rating (0 to 100), Corn", "setting": "[3]; POSTEMERGENCE, Rate 2 g/ha", "result": 30}, {"measurement": "Plant response rating, Corn", "setting": "[3]; PREEMERGENCE", "result": 0}, {"measurement": "Plant response rating (0 to 100), Corn", "setting": "[3]; PREEMERGENCE, Rate 2 g/ha", "result": 0}, {"measurement": "Plant response rating (0 to 100), Corn", "setting": "[3]; Rate 8 g/ha, POSTEMERGENCE", "result": 40}, {"measurement": "Plant response rating (0 to 100), Corn", "setting": "[3]; Rate 8 g/ha, PREEMERGENCE", "result": 0}, {"measurement": "Plant response rating (0 to 100), Corn", "setting": "[3]; Rate 31 g/ha, POSTEMERGENCE", "result": 50}, {"measurement": "Plant response rating (0 to 100), Corn", "setting": "[3]; Rate 31 g/ha, PREEMERGENCE", "result": 0}, {"measurement": "Plant response rating (0 to 100), Rice Japonica", "setting": "[4]; POSTEMERGENCE section, flood test, Rate 2 g/ha", "result": 0}, {"measurement": "Plant response rating (0 to 100), Rice Japonica", "setting": "[4]; Rate 8 g/ha, under POSTEMERGENCE head (flood test species)", "result": 0}, {"measurement": "Plant response rating (0 to 100), Rice Japonica", "setting": "[4]; Rate 31 g/ha, under POSTEMERGENCE head (flood test species)", "result": 0}, {"measurement": "Plant response rating Rice Japonica", "setting": "[4]; flood test species listed under POSTEMERGENCE, 125 g/ha, 0 to 100 scale", "result": 40}, {"measurement": "Plant response rating, Sorghum", "setting": "[5]; POSTEMERGENCE, Rate 50 g/ha", "result": 3}, {"measurement": "Plant response rating, Sorghum", "setting": "[5]; PREEMERGENCE, Rate 50 g/ha", "result": 1}, {"measurement": "Plant response rating (0 to 10 scale), Sorghum", "setting": "[5]; PREEMERGENCE, Rate 200 g/ha", "result": 5}, {"measurement": "Plant response rating, Sorghum", "setting": "[5]; Rate 200 g/ha, POSTEMERGENCE", "result": 4}, {"measurement": "Plant response rating, Morningglory", "setting": "[6]; POSTEMERGENCE", "result": 85}, {"measurement": "Plant response rating (0 to 100), Morningglory", "setting": "[6]; POSTEMERGENCE, Rate 2 g/ha", "result": 70}, {"measurement": "Plant response rating, Morningglory", "setting": "[6]; PREEMERGENCE", "result": 10}, {"measurement": "Plant response rating (0 to 100), Morningglory", "setting": "[6]; PREEMERGENCE, Rate 2 g/ha", "result": 0}, {"measurement": "Plant response rating (0 to 100), Morningglory", "setting": "[6]; Rate 8 g/ha, POSTEMERGENCE", "result": 70}, {"measurement": "Plant response rating (0 to 100), Morningglory", "setting": "[6]; Rate 8 g/ha, PREEMERGENCE", "result": 0}, {"measurement": "Plant response rating (0 to 100), Morningglory", "setting": "[6]; Rate 31 g/ha, POSTEMERGENCE", "result": 85}, {"measurement": "Plant response rating (0 to 100), Morningglory", "setting": "[6]; Rate 31 g/ha, PREEMERGENCE", "result": 10}, {"measurement": "Plant response rating, Nutsedge", "setting": "[7]; POSTEMERGENCE, Rate 50 g/ha", "result": 2}, {"measurement": "Plant response rating, Nutsedge", "setting": "[7]; PREEMERGENCE, Rate 50 g/ha", "result": 0}, {"measurement": "Plant response rating (0 to 10 scale), Nutsedge", "setting": "[7]; PREEMERGENCE, Rate 200 g/ha", "result": 0}, {"measurement": "Plant response rating, Nutsedge", "setting": "[7]; Rate 200 g/ha, POSTEMERGENCE", "result": 5}, {"measurement": "Plant response rating, Wheat", "setting": "[8]; POSTEMERGENCE", "result": 70}, {"measurement": "Plant response rating (0 to 100), Wheat", "setting": "[8]; POSTEMERGENCE, Rate 2 g/ha", "result": 10}, {"measurement": "Plant response rating, Wheat", "setting": "[8]; PREEMERGENCE", "result": 10}, {"measurement": "Plant response rating (0 to 100), Wheat", "setting": "[8]; PREEMERGENCE, Rate 2 g/ha", "result": 0}, {"measurement": "Plant response rating (0 to 100), Wheat", "setting": "[8]; Rate 8 g/ha, POSTEMERGENCE", "result": 40}, {"measurement": "Plant response rating (0 to 100), Wheat", "setting": "[8]; Rate 8 g/ha, PREEMERGENCE", "result": 0}, {"measurement": "Plant response rating (0 to 100), Wheat", "setting": "[8]; Rate 31 g/ha, POSTEMERGENCE", "result": 60}, {"measurement": "Plant response rating (0 to 100), Wheat", "setting": "[8]; Rate 31 g/ha, PREEMERGENCE", "result": 0}]}
